Key:
[1] = system: Pfa1 Gpx4−/− overexpressing chimeric FSP1 C4; experiment: Cell viability (Alamar blue), chimeric construct C4; type: cell-based, murine; conditions: Mus musculus; chimeric construct C4 (human residues 181 to 240); x axis iFSP1 (μM); read-out: IC50 (dose-response toxicity)
Description: (§1) Cell Lines. 4-hydroxytamoxifen (TAM)-inducible Gpx4^−/− murine immortalized fibroblasts (Pfa1) were reported previously. These cells harbor two loxP-flanked Gpx4 alleles and stably express TAM inducible Cre recombinase allowing the genetic deletion of Gpx4 at will. For all experiments using Gpx4^−/− the well were treated with 4-hydroxitamoxifen (TAM) 1 µM. All cells were cultured with were cultured in DMEM-high glucose (4.5 g glucose/L) with 10% fetal bovine serum (FBS), Glutamax, and 1% penicillin/streptomycin (Gibco, Thermo Fischer) at 37 °C with 5% CO2 and verified to be negative for mycoplasma.
(§2) Cell viability assays. Alamar Blue method: Cells were seeded on 96-well plates (2000 cells per well) and treated with the compounds RSL3, iFSP1 and (liproxstatin-1) after plating. Cell viability was assessed 48 h (unless stated otherwise) after treatment using Alamar Blue as an indicator of viable cells. Alamar blue solution was made by dissolving of 1 g resazurin sodium salt (Thermo Fischer) in 200 mL sterile PBS and sterile filtrated through a 0.22 µm filter. Stock solutions were stored at 4 °C. The working solution was made freshly by adding 200 µL of the stock solution to 25 mL growth media. After 2–4 h incubation time, viability was estimated by measuring the fluorescence using a 540/35 excitation filter and a 590/20 emission on a Spark® microplate reader (Tecan, Zürich, Switzerland). […]

[2] = system: Pfa1 Gpx4−/− overexpressing mFSP1 L360F; experiment: Cell viability (Alamar blue), mFSP1 L360F; type: cell-based, murine
Description: as §1
(§3) Cell viability assays. Alamar Blue method: Cells were seeded on 96-well plates (2000 cells per well) and treated with the compounds RSL3, iFSP1 and (liproxstatin-1) after plating. Cell viability was assessed 48 h (unless stated otherwise) after treatment using Alamar Blue as an indicator of viable cells. Alamar blue solution was made by dissolving of 1 g resazurin sodium salt (Thermo Fischer) in 200 mL sterile PBS and sterile filtrated through a 0.22 µm filter. Stock solutions were stored at 4 °C. The working solution was made freshly by adding 200 µL of the stock solution to 25 mL growth media. After 2–4 h incubation time, viability was estimated by measuring the fluorescence using a 540/35 excitation filter and a 590/20 emission on a Spark® microplate reader (Tecan, Zürich, Switzerland).

[3] = system: Pfa1 Gpx4−/− cells overexpressing murine FSP1 (mFSP1); experiment: Cell viability (Alamar blue), dose-response toxicity in Gpx4-knockout cells expressing mFSP1; type: cell-based
Description: as §1, §2

[4] = system: Pfa1 Gpx4−/− cells overexpressing human FSP1 (hFSP1); experiment: Cell viability (Alamar blue), dose-response toxicity in Gpx4-knockout cells expressing hFSP1; type: cell-based, murine
Description: as §1, §3
Codon-optimized Mus musculus (mouse) FSP1 (NP_001034283.1) and Homo sapiens (Human) FSP1 (NP_001185625.1) were synthesized by IDT as gBlocks^TM and subcloned into p442-IRES-blast vectors. The chimera constructs were generated based on the pairwise alignment between the gene of Homo sapiens (Human) and the Mus musculus (Mouse), all the chimeric constructs contain the murine isoform with one region exchanged to the human isoform. […]

`Cc1ccc(-c2c(C#N)c(N)n3c(nc4ccccc43)c2C#N)cc1` [iFSP1] was tested, and the IC50 [1] was 8.96 µM, the “iFSP1-mediated inhibition of FSP1 (ferroptosis induction)” value [2] was “restored the iFSP1-mediated inhibition of mFSP1” and the IC50 ([2]; Mus musculus, x axis iFSP1 (μM), read-out: IC50 (dose-response toxicity)) was 0.95 µM. For the same molecule, the IC50 ([3]; Mus musculus, mFSP1 WT, Δ curve (no Lip-1), Alamar blue, x axis iFSP1 (μM)) was 7.48 µM, the induction of ferroptosis ([3]; murine isoform) was “could only induce ferroptosis in the cell line expressing the human isoform” and the IC50 ([4]; Mus musculus, hFSP1 WT, Δ curve (no Lip-1), Alamar blue, x axis iFSP1 (μM)) was 0.45 µM. For the same molecule, the induction of ferroptosis ([4]; human isoform) was “induce ferroptosis”.

Source: article PMC10119282, “Molecular characterization of AIFM2/FSP1 inhibition by iFSP1-like molecules” (Cell Death & Disease, 2023)
